The nature of this data set: Serum stability assay in 25% FBS. In kind it is in vitro ADME. The note with it: 25% fetal bovine serum in RPMI-1640, 37 °C, RP-HPLC C18 at 280 nm, L-tryptophan internal standard, triplicate, read-out: initial peptide remaining intact in serum. As for the experimental part: Encouraged by the in vitro results, we evaluated the potential of CHD^Max-1 to form a complex with MYC in cellulo. We first assessed the ability of CHDs to resist proteolytic degradation in fetal bovine serum (FBS). We monitored the rate of peptide degradation under the treatment of 25% FBS over 24 h by RP-HPLC, with tryptophan as an internal standard. […] After validating the serum stability of CHD^Max-1, we tested its potential to enter live cells. We chose T24 cells, a bladder cancer cell line, for these studies because these cells express a high level of MYC.[39] We assessed the ability of fluorescein-labeled FITC–CHD^Max-1 to enter T24 cells using confocal microscopy and observed overlapped fluorescein and Hoechst nuclear stain signals, showing internalization of FITC–CHD^Max-1 (Figure 4C).
CD experiments were conducted on an Jasco J-1500 Circular Dichroism spectrometer equipped with a temperature controller using 1 mm length cells and a scan speed of 4.0 nm/min at 298 K. The spectra were averaged over 5 scans with baseline subtraction. […] The concentrations of each peptide were determined by the UV absorption at 280 nm.
Proteolytic stability of CHDMax-1 was assessed in 25% serum by using fetal bovine serum (FBS, Gibco) in Roswell Park Memorial Institute (RPMI)-1640 medium at 37 °C. […] Time points of 0 h, 6 h, and 24 h were analyzed in triplicate. […]

Starred links: 1 amine or outer side, 2 acyl side, 3 side chain; linkers in the order of their positions; H or OH if unused. Positions of bridges follow the written chain, without caps; N, C: chain ends. Residues, ends and D or L forms follow the SMILES beside them. Chains are numbered I, II in the order given. X1 = c1cc(C[*:1])ccc1COCc1ccc(C[*:2])cc1

What is called share remaining is the share of the starting amount still present when the sample was taken. As for `CC[C@H](C)[C@H](NC(=O)[C@H](CCCCN)NC(=O)[C@H](CCC(=O)O)NC(=O)[C@H](CCCNC(=N)N)NC(=O)[C@H](CC(C)C)NC(C)=O)C(=O)N[C@@H](C)C(=O)N[C@H](C(=O)N[C@@H](CC(C)C)C(=O)N[C@@H](CCC(N)=O)C(=O)N[C@@H](Cc1c[nH]c2ccccc12)C(=O)N[C@@H](CSCc1ccc(COCc2ccc(CSC[C@H](NC(=O)[C@H](CC(C)C)NC(=O)[C@H](CCC(=O)O)NC(=O)[C@H](CCC(=O)O)NC(=O)[C@@H](NC(=O)[C@H](CCC(=O)O)NC(=O)[C@H](Cc3c[nH]c4ccccc34)NC(=O)[C@H](CCC(N)=O)NC(=O)[C@H](Cc3c[nH]cn3)NC(=O)[C@@H](NC(=O)[C@H](CCC(=O)O)NC(=O)[C@H](CC(N)=O)NC(=O)[C@H](CCCCN)NC(=O)[C@H](CCCNC(=N)N)NC(=O)[C@H](CCCNC(=N)N)NC(=O)[C@H](CC(C)C)NC(C)=O)[C@@H](C)O)[C@@H](C)CC)C(N)=O)cc2)cc1)C(=O)N[C@H](C(=O)N[C@@H](CCC(=O)O)C(=O)N[C@@H](CCC(=O)O)C(=O)N[C@@H](CC(C)C)C(=O)N[C@@H](CCCNC(=N)N)C(=O)N[C@@H](CCCCN)C(N)=O)[C@@H](C)CC)[C@@H](C)O` [CHD^Max-1] (I: Ac-LREKIATLQWCIEELRK-NH2 / II: Ac-LRRKNETHQWEIEELC-NH2; linker I:11-II:16 via X1), the share remaining at 24 h was approximately 80%.

(Values after publication PMC12022973, “Proteomimetic Strategy for the Modulation of Intrinsically Disordered Protein MYC” (Journal of the American Chemical Society, 2025).)
